Test results taken from patent publication US20230383129A1, “ANTIFOULING COMPOUNDS” (I-Tech AB, priority 2020, published 2023).

Tests used:
[1] = Stability/hydrolysis of monomers in ethanol and PBS buffer followed by TLC (Setup 1); type: physicochemical; conditions: after two weeks
Protocol: The stability of the carbamate-(M3), urea-(M4) and sulfonylderivative of medetomidine (M2 and M0) were studied in ethanol and phosphate-buffered saline (PBS) buffer. Thin-layer chromatography (TLC) was used to follow the decomposition of the derivatives to free medetomidine. It took approximately two weeks until most of the derivatives stored at room temperature to decompose. If the storage temperature was +6° C. no decomposition was observed.
Nine vials were prepared. Vial 1 contained reference compound medetomidine dissolved in ethanol (1 ml). Substance M2 (25 mg) was added to vial 2 and 3. Substance M3 (25 mg) was added to vial 4 and 5. Substance M4 (25 mg) was added to vial 6 and 7 and substance M0 was added to vial 8 and 9. The solid material in vials 2 to 9 were dissolved in ethanol (1 ml) and PBS buffer pH 7.4 (1 ml) to mimic sea water containing different salts and having a pH slightly basic. Ethanol was chosen as solvent to increase the solubility of the substances. During the study vial 1, 3, 5, 7 and 9 were stored at room temperature, whereas vial 2, 4, 6 and 8 were stored in a refrigerator at +6° C. Stability of the compounds was studied after 0, 1, 2, 5, 6, 9, 13 and 15 days using TLC and dichloromethane—methanol (95-5) as eluent.

barnacle cyprid larva = conditions: barnacles; cited from earlier work
[2] = Release of I from monomers into artificial seawater, LC-MS (Setup 2); type: physicochemical; conditions: for Concentration of I released: artificial seawater 3% NaCl pH 8.0, ambient temperature; for Concentration of I (near constant over the study): artificial seawater, days 10-25
Protocol: The stability of M1 and M4 was evaluated via quantification of the release of I into artificial seawater (3% NaCl, pH 8.0). For the experiments, compound M1 (0.023 g) was suspended in 5 mL artificial seawater, while M4 (0.044 g) were suspended in 10 mL artificial seawater. The solutions were stirred (300 rpm) at ambient temperatures and samples were collected at 10, 15, 20 and 25 days. The samples were stored in freezer 2-2.5 months prior to LC-MS analysis.
Samples from the release studies were analyzed using LC-MS. The LC-MS system was composed of an Acquity I-class UPLC with a Waters Xevo G2-S Qtof. The chromatographic separation was obtained on a C18 column with gradient elution (Eluent A, 0.1% NH4 in MQ-water and Eluent B, 100% acetonitrile). The samples (from freezer) were extracted with hexane and the organic extracts were analyzed by LC-MS. Three external calibration curves for I, M1 and M4 were prepared the same way as the samples and used for quantification.

[3] = ethanol/PBS buffer pH 7.4, refrigerator +6° C.
[4] = ethanol/PBS buffer pH 7.4, room temperature

SMILES | decomposition to free medetomidine (TLC) [1, 3] | decomposition to free medetomidine (TLC) [1, 4] | concentration impeding larval settlement (barnacle cyprid larva) [nM] | Concentration of I released ([2]; incubation 10 days) [ng/mL] | Concentration of I released ([2]; incubation 15 days) [ng/mL] | Concentration of I released ([2]; incubation 20 days) [ng/mL] | Concentration of I released ([2]; incubation 25 days) [ng/mL] | Concentration of I (near constant over the study) [2] [ng/mL]
Cc1cccc(C(C)c2cn(S(C)(=O)=O)cn2)c1C (stereo not drawn) [Compound M0, 4-[1-(2,3-dimethylphenyl)ethyl]-1-(methanesulfonyl)-1H-imidazole] | stable | stable |  |  |  |  |  | 
C=CCS(=O)(=O)n1cnc(C(C)c2cccc(C)c2C)c1 (stereo not drawn) [Compound M2, 4-[1-(2,3-dimethylphenyl)ethyl]-1-(prop-2-ene-1-sulfonyl)-1H-imidazole] | mixture of medetomidine and the starting material | only medetomidine |  |  |  |  |  | 
Cc1cccc(C(C)c2c[nH]cn2)c1C (racemic) [medetomidine, (±)-4-[1-(2,3-dimethylphenyl)ethyl)-1H-imidazole] |  |  | 1 to 10 |  |  |  |  | 
C=C(C)C(=O)n1cnc(C(C)c2cccc(C)c2C)c1 (stereo not drawn) [Compound M1, 1-{4-[1-(2,3-dimethylphenyl)ethyl]-1H-imidazol-1-yl}-2-methylprop-2-en-1-one] |  |  |  | 9330.0 | 9905.8 | 9748.8 | 9820.4 | ~9000
C=CCNC(=O)n1cnc(C(C)c2cccc(C)c2C)c1 (stereo not drawn) [Compound M4, 4-[1-(2,3-dimethylphenyl)ethyl]-N-(prop-2-en-1-yl)-1H-imidazole-1-carboxamide] | stable | decomposition to medetomidine as well as non-hydrolyzed M4 |  | 5028.9 | 5592.2 | 5078.0 |  | ~5000
C=CCOC(=O)n1cnc(C(C)c2cccc(C)c2C)c1 (stereo not drawn) [Compound M3, prop-2-en-1-yl 4-[1-(2,3-dimethylphenyl)ethyl]-1H-imidazole-1-carboxylate] | mixture of medetomidine and the starting material | only medetomidine |  |  |  |  |  | 
